Counter-ions that a name gives are not always drawn. Like-named read-outs stand apart in the source and are kept apart here. Numbered stars: 1 amine (or outer) side, 2 acyl side, 3 side chain; on linkers, the order of the positions; unused ones are H or OH. Bridge positions count the residues as written; N and C are the ends. Square brackets hold non-standard residues; d marks the D form. Peptide text beside a SMILES is read from it. I, II: the chains in the order shown. * marks the point of attachment. Actinocin(9to1) = Cc1c2oc3c(C)ccc(C(=O)[*:1])c3nc-2c(C(=O)[*:2])c(N)c1=O; NMeV = CN[C@H](C(=O)O)C(C)C; Cbz = O=C(OCc1ccccc1)*; Sar = CNCC(=O)O
Test system: PRKACA-PRKAR2A interaction (SmBiT-PRKACA / LgBiT-PRKAR2A), protein kinase A
Design: NanoLuc complementation counter-screen in cell extract, PRKACA with PRKAR2A, loss of luminescence, detects NanoLuc interference
Details: 0.5 h, 20 µM, inhibitor
[1] = counter-screen for NanoLuc interference
[2] = counter-screen for NanoLuc interference, Inh (PKA)

Compound	Inh (PKA) [1]	also measured
Nc1nc2[nH]cc(CCc3ccc(C(=O)N[C@@H](CCC(=O)O)C(=O)O)cc3)c2c(=O)[nH]1 [UM0141829:01, Pemetrexed]		Inh (PKA) [2]: -0.0222%
CC(=O)O[C@@]12CO[C@@H]1C[C@H](O)[C@@]1(C)C(=O)[C@H](O)C3=C(C)[C@@H](OC(=O)[C@H](O)[C@@H](NC(=O)OC(C)(C)C)c4ccccc4)C[C@@](O)([C@@H](OC(=O)c4ccccc4)[C@H]21)C3(C)C [UM0141830:01, Docetaxel]		Inh (PKA) [2]: 0.7441%
CO[C@@H]1[C@H](OC(=O)/C=C/C=C/C=C/C=C/C(=O)O)CC[C@]2(CO2)[C@H]1[C@@]1(C)O[C@@H]1CC=C(C)C [UM0141832:01, Fumagillin]	0.06739%	
CC(C)[C@H](NC(=O)OCc1ccccc1)C(=O)N[C@H](C=O)Cc1ccccc1 [UM0141833:01, MDL 28170] (Cbz-Val-Phe-aldehyde)	3.195%	
N#Cc1ccc(NCCNCC(=O)N2CCC[C@H]2C#N)nc1 [UM0141834:01, NVP DPP 728 dihydrochloride]	-0.6384%	
Cc1c2oc3c(C)ccc(C(=O)N[C@@H]4C(=O)N[C@H](C(C)C)C(=O)N5CCC[C@H]5C(=O)N(C)CC(=O)N(C)[C@@H](C(C)C)C(=O)O[C@@H]4C)c3nc-2c(C(=O)N[C@@H]2C(=O)N[C@H](C(C)C)C(=O)N3CCC[C@H]3C(=O)N(C)CC(=O)N(C)[C@@H](C(C)C)C(=O)O[C@@H]2C)c(N)c1=O [UM0141835:01, Actinomycin D] (I: T[dV]P[Sar][NMeV] / II: T[dV]P[Sar][NMeV]; ester I:1-I:C, II:1-II:C; linker I:N-II:N via Actinocin(9to1))	21.28%	
COc1cc(-n2c(=S)[nH]c3ccccc3c2=O)c(Cl)cc1Cl [UM0141840:01, Mdivi 1]	54.95%	
O=C1C2CCN(CC2)C1(CO)CO [UM0141841:01, PRIMA-1]	1.308%	
COCC1(CO)C(=O)C2CCN1CC2 (centres unmarked) [UM0141842:01, PRIMA-1MET]	2.921%	
Cc1cc(C)cc(C(=O)NOCCCCCC(=O)NO)c1 [UM0141845:01, LMK 235]	-1.396%	
COc1cc2c(NC3CCN(C)CC3)nc(N3CCCN(C)CC3)nc2cc1OCCCN(C)C [UM0141847:01, UNC 0224]	3.563%	
BrC1C(Br)C(Br)C(Br)C(Br)C1Br (centres unmarked) [UM0141851:01, 1,2,3,4,5,6-Hexabromocyclohexane]	6.156%	
CC(C)(O)/C=C/C(=O)[C@](C)(O)[C@H]1[C@H](O)C[C@@]2(C)[C@@H]3CC=C4[C@@H](C=C(O)C(=O)C4(C)C)[C@]3(C)C(=O)C[C@]12C [UM0141852:01, Cucurbitacin I]		Inh (PKA): -0.1004%
C=CC(=O)c1ccc2ccccc2c1 [UM0141853:01, ZM 449829]	8.312%	

Now from value to molecule, other results behind:

Inh (PKA) [1]	Compound	also measured
36.57%	N#Cc1ccc(COC[C@H]2O[C@@H](n3c(NCc4ccc(Cl)c(Cl)c4)nc4c(N)ncnc43)[C@H](O)[C@@H]2O)cc1 [UM0141827:01, VER 155008]	
5.956%	CC[C@@H](C)Nc1cc(C(=O)N[C@H]2C[C@H]3CC[C@@H](C2)N3c2ccc(C(=O)C3CC3)cn2)c(C)cc1C(N)=O [UM0141828:01, XL-888]	
18.44%	COc1ccc(CCc2nc3cc(-c4c(C)noc4C)ccc3n2C[C@H](C)N2CCOCC2)cc1Cl [UM0141843:01, SGC-CBP30]	
2.048%	CC(=O)SCC(=O)c1ccc(NS(=O)(=O)c2ccc(OCCCN(C)C)cc2)nc1 [UM0141844:01, KD 5170]	
6.356%	Cc1ccc(NC(=O)CCCCCC(=O)Nc2ccccc2N)cc1 [UM0141846:01, TC-H 106]	
19.45%	O=S(=O)(NCCSSCCNS(=O)(=O)c1cc(Cl)ccc1Cl)c1cc(Cl)ccc1Cl [UM0141849:01, KC7F2]	
47.09%	N#Cc1c(-c2ccccc2)cc(-c2cc(Br)ccc2O)[nH]c1=O [UM0141854:01, TCS PIM-1 1]	
17.99%	COc1ccc(-n2c(SCCCN3C(=O)c4cccc5cccc(c45)C3=O)nnc2-c2ccncc2)cc1 [UM0141857:01, WIKI4]	
56.23%	O=C(/C=C/c1ccccc1)NC(NC(=S)Nc1ccc(Cl)cc1)C(Cl)(Cl)Cl (centres unmarked) [UM0141858:01, Sal 003]	

Source: article PMC9995496, “A screen for MeCP2-TBL1 interaction inhibitors using a luminescence-based assay” (Scientific Reports, 2023)
